In test [1] the test system is C57BL/KsJ db/db diabetic mice. The test can be described thus: Measurement of fasting blood glucose (in vivo efficacy test for blood glucose lowering). The conditions noted are these: oral once a day, Noni 100 mg/kg, Metformin 200 mg/kg. How it is done:
(§1) An administration sample administered to a diabetic model positive control was a Metformin Tab (metformin hydrochloride, JRP), which is a diabetic drug. A dose was 200 mg/kg body weight of a mouse (denoted as Metformin 200 mg/kg).
(§2) An administration sample administered to a diabetic model fermented noni group was a food composition containing the fermented noni obtained in Example 1. A dose was 100 mg/kg body weight of a mouse (denoted as Noni 100 mg/kg).
(§3) As for the administration method, each administration sample was dissolved in 0.5% carboxymethyl cellulose (CMC) for each dose and orally administered once a day for 6 weeks.
The fasting blood glucose of the experimental animals was measured once a week for 6 weeks using a glucometer. Fasting blood glucose was measured at 1-week (7-day) intervals for 6 weeks (42 days) for each experimental group.

For test [2], the system named is C57BL/KsJ db/db diabetic mice. The experiment in a line: Oral glucose tolerance test (OGTT). The following applies: db/db mice after 6 weeks oral administration, Noni 100 mg/kg, Metformin 200 mg/kg; for blood glucose decreased (OGTT): glucose 3.0 g/kg oral. It is filed as in vivo. Here is the method: as §1, §2, §3
After the completion of oral administration for 6 weeks, an oral glucose tolerance test (OGTT) was performed.
After experimental animals were fasted for 12 hours, fasting blood glucose was measured by collecting blood from the tail vein, and then a 50% glucose solution (3.0 g/kg of B.W) was orally administered to all groups, and after 30 minutes, 60 minutes, 120 minutes and 180 minutes, blood glucose was measured using a glucometer.

SMILES strings stand for the structures. Structures can show the parent of a compound that is named as a salt.

On to `CN(C)C(=N)N=C(N)N` [Metformin, metformin hydrochloride], for which the “decrease in fasting blood glucose” value in test [1] (after 6 weeks) is recorded as 34%. In addition, the fasting blood glucose entry in test [1] (for 1 to 6 weeks, FIG. 2) was “consistently low”. The “AUC value decreased (OGTT area under curve)” value in test [2] (compared to db/db control, FIG. 4) came to 23.3%. For the same compound, the “blood glucose decreased (OGTT)” value in test [2] (at 2 hr, compared to db/db control) amounted to 22.9%; in test [2] (at 3 hr, compared to db/db control), 28.5%; in test [2] (from 1 hr, compared to blood glucose increased at 0.5 hr in db/db control), 33.1%.

Values taken from patent US20220408777A1, “FOOD COMPOSITION FOR PREVENTING AND AM[…] […] NONI AND METHOD FOR PREPARING SAME” (NSTBIO. CO., LTD., priority 2020, published 2022).
